Test results published in PubChem BioAssay AID1963974 (Molecular Pharmacology Branch, DTP, NCI, 2024).

Tested on: 648629-189-R-J1-PDC spheroids with HUVEC/MSC, viability
Assay: Anticancer human tumor 648629-189-R-J1-PDC patient-derived bladder carcinoma cell line growth inhibition [PI3K]
Conditions: for IC50: curve of first compound; for viability, T/C: stronger effect = lower value
Source text: Combinatorial screen of targeted agents with the PI3K inhibitors inavolisib, alpelisib, duvelisib, and copanlisib in multi-cell type tumor spheroids
A high-throughput screen of multi-cell type tumor spheroids was designed to identify active combinations of targeted small molecules and PI3K pathway inhibitors. Complex spheroids include a stromal component modeled by human endothelial cells (HUVEC) and fibroblasts modeled by human mesenchymal stem cells (MSCs). The concentration ranges selected for each drug and investigational agent were based upon clinically achievable concentrations if the clinical Cmax of the agent was known.
Compounds. The drugs and investigational agents: inavolisib (NSC800729), alpelisib (NSC765974), duvelisib (NSC772469), copanlisib (NSC816437), ipatasertib (NSC767898), afuresertib (NSC778305), talazoparib (NSC767125), sapanisertib (NSC764658), selumetinib (NSC741078), tovorafenib (DAY101, NSC766906), vemurafenib (NSC761431), ravoxertinib (NSC781343), sotorasib (NSC818433), MRTX1133 (NSC 836407), abemaciclib (NSC 768073), palbociclib (NSC758247), venetoclax (NSC 766270), SY5609 (NSC837396), enzalutamide (NSC755605), and darolutamide (NSC825331), were obtained from the National Cancer Institute (NCI) Developmental Therapeutics Program Chemical Repository. The FDA-approved anticancer drug set is available from the NCI Developmental Therapeutics Program. […] The stock solutions were prepared in dimethyl sulfoxide (DMSO, Sigma-Aldrich, St. Louis, MO, cat. D2650) at 800-fold the tested concentration and stored at -70 degrees C prior to their use. All drugs and investigational agents were tested over a range starting from a high concentration at or near the clinical Cmax and decreasing in half-log increments. If the clinical Cmax for an agent had not been determined, the highest concentration tested was 10 microM.
Cell Culture. All cells were maintained in an incubator at 37 degrees C and 5% CO2 with 95% humidity. The PDC lines were cultured according to standard operating procedures established by the NCI PDMR (https://pdmr.cancer.gov/sops/default.htm). All PDCs were thawed and cultured in Matrigel-coated flasks prepared with a working solution of 1X Ham's F-12 nutrient mix, without supplementation (Invitrogen, Waltham, MA, cat. 11765054), 100 U/mL penicillin-streptomycin (Invitrogen, cat. 15140122), and 2.5% Matrigel (Corning Inc., Corning, NY, cat. 354248) for the first three passages. The 354836-022-R-J1-PDC, 475296-252-R-J1-PDC, and 997726-040-R-J2-PDC lines were cultured in 6A media, which includes advanced DMEM/F-12 (Thermo Fisher Scientific, cat. 12634028), 10 mM HEPES (Thermo Fisher Scientific, cat. 15630080), 1X GlutaMAX supplement (Thermo Fisher Scientific, cat. 35050061), 0.1 mg/mL primocin (InvivoGen, San Diego, CA, cat. ant-pm-2), 10% defined fetal bovine serum, heat inactivated (HyClone Laboratories Inc., Logan, UT, cat. SH30070.03HI), 50% L-WRN conditioned media (ATCC, cat. CRL-3276), 1.25 mM N-Acetyl-L-cysteine (Sigma-Aldrich, cat. A9165), 10 mM nicotinamide (Sigma-Aldrich, cat. N0636), 1X B-27 supplement (Thermo Fisher Scientific, cat. 17504044), 1X N-2 supplement (Thermo Fisher Scientific, cat. 17502048), and 10 microM Y-27632 dihydrochloride (Tocris Bioscience, Bristol, United Kingdom, cat. 1254). The 624824-186-R-J2-PDC line was cultured in 6C/Colon 1B media, which includes all 6A media components plus 50 ng/mL human EGF recombinant protein (Thermo Fisher Scientific, cat. PHG0311). […]
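Further: spheroids exposed to agents for seven days before reading.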
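Wherever viability, T/C is given: percent of vehicle control luminescence where 100% = DMSO treated spheroids.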

SMILES: Cn1cnc2c(F)c(Nc3ccc(Br)cc3Cl)c(C(=O)NOCCO)cc21 + CC(Nc1ccc2c(c1)OCCn1cc(N3C(=O)OCC3C(F)F)nc1-2)C(N)=O
- IC50 (second compound 0.00316 µM): > 3 µM
- IC50 (second compound 0.01 µM): > 3 µM
- IC50 (second compound 0.0316 µM): > 3 µM
- IC50 (second compound 0.1 µM): > 3 µM
- IC50 (second compound 0.316 µM): > 3 µM
- IC50 (second compound 1 µM): > 3 µM
- viability, T/C (second compound 0.00316 µM, first compound 0.00949 µM): 95.5%
- viability, T/C (second compound 0.00316 µM, first compound 0.03 µM): 103%
- viability, T/C (second compound 0.00316 µM, first compound 0.0949 µM): 99.2%
- viability, T/C (second compound 0.00316 µM, first compound 0.3 µM): 91.8%
- viability, T/C (second compound 0.00316 µM, first compound 0.949 µM): 94.4%
- viability, T/C (second compound 0.00316 µM, first compound 3 µM): 81.6%
- viability, T/C (second compound 0.01 µM, first compound 0.00949 µM): 93.4%
- viability, T/C (second compound 0.01 µM, first compound 0.03 µM): 91.2%
- viability, T/C (second compound 0.01 µM, first compound 0.0949 µM): 92.9%
- viability, T/C (second compound 0.01 µM, first compound 0.3 µM): 91.8%
- viability, T/C (second compound 0.01 µM, first compound 0.949 µM): 103%
- viability, T/C (second compound 0.01 µM, first compound 3 µM): 81.1%
- viability, T/C (second compound 0.0316 µM, first compound 0.00949 µM): 98.5%
- viability, T/C (second compound 0.0316 µM, first compound 0.03 µM): 96.2%
- viability, T/C (second compound 0.0316 µM, first compound 0.0949 µM): 87.5%
- viability, T/C (second compound 0.0316 µM, first compound 0.3 µM): 89.3%
- viability, T/C (second compound 0.0316 µM, first compound 0.949 µM): 95.2%
- viability, T/C (second compound 0.0316 µM, first compound 3 µM): 79.2%
- viability, T/C (second compound 0.1 µM, first compound 0.00949 µM): 90.7%
- viability, T/C (second compound 0.1 µM, first compound 0.03 µM): 91.7%
- viability, T/C (second compound 0.1 µM, first compound 0.0949 µM): 82.6%
- viability, T/C (second compound 0.1 µM, first compound 0.3 µM): 92.2%
- viability, T/C (second compound 0.1 µM, first compound 0.949 µM): 93.9%
- viability, T/C (second compound 0.1 µM, first compound 3 µM): 75.8%
- viability, T/C (second compound 0.316 µM, first compound 0.00949 µM): 81.1%
- viability, T/C (second compound 0.316 µM, first compound 0.03 µM): 79.2%
- viability, T/C (second compound 0.316 µM, first compound 0.0949 µM): 70.3%
- viability, T/C (second compound 0.316 µM, first compound 0.3 µM): 78.5%
- viability, T/C (second compound 0.316 µM, first compound 0.949 µM): 74.3%
- viability, T/C (second compound 0.316 µM, first compound 3 µM): 69.1%
- viability, T/C (second compound 1 µM, first compound 0.00949 µM): 66.1%
- viability, T/C (second compound 1 µM, first compound 0.03 µM): 70.4%
- viability, T/C (second compound 1 µM, first compound 0.0949 µM): 66.4%
- viability, T/C (second compound 1 µM, first compound 0.3 µM): 96.4%
- viability, T/C (second compound 1 µM, first compound 0.949 µM): 66%
- viability, T/C (second compound 1 µM, first compound 3 µM): 51%
